Laboratory results taken from ChEMBL document CHEMBL3272039, “Potenial antitumor agents. 28. Deoxyribonucleic acid polyintercalating agents” (J Med Chem, 1978).

Assays:
Mus musculus [1] = assay: (§1) Toxicity in ip dosed BDF1 mouse allografted with mouse L1210 cells administered qd for 5 days; format: organism-based; settings: mouse, in vivo, 120 h
L1210 = assay: Antitumor activity against mouse L1210 cells allografted in ip dosed BDF1 mouse at optimum dose administered qd for 5 days relative to control; format: functional
P388 = assay: Antitumor activity against mouse P388 cells allografted in ip dosed BDF1 mouse at optimum dose administered qd for 5 days relative to control; format: functional
[2] = Lipophilic-hydrophilic balance, Rm of the compound by reversed-phase chromatographic analysis; format: physicochemical
Mus musculus [3] = assay: (§2) Toxicity in ip dosed BDF1 mouse allografted with mouse P388 cells administered qd for 5 days; format: organism-based; settings: mouse, in vivo, 120 h
Bos taurus = species: Bos taurus; assay: Displacement of ethidium bromide from calf thymus DNA by spectrofluorometric analysis
[4] = as §1; format: organism-based; settings: BDF1, mouse, in vivo
[5] = as §2; format: organism-based; settings: BDF1, mouse, in vivo
Pseudoalteromonas = assay: Induction of bacteriophage PM2 closed circular DNA unwinding assessed as drug per nucleic acid phosphate ratio at equivalence by viscometric analysis

## Cl.O.O=S(=O)(CCNc1ncnc2ccccc12)Nc1ccc(Nc2c3ccccc3nc3ccccc23)cc1
Mus musculus [1]
  Activity: 50 mg/kg/day
L1210
  ILS: 57%
P388
  ILS: 100%
[2]
  Rm: -0.53
Mus musculus [3]
  Activity: 100 mg/kg/day
Bos taurus
  C50: 0.67 µM

## CS(=O)(=O)Nc1ccc(Nc2ccnc3ccccc23)cc1
[4]
  MTD at 120 h: 200 mg/kg/day
L1210
  ILS: >25%
P388
  ILS: >25%
[2]
  Rm: -0.39
[5]
  MTD at 120 h: 200 mg/kg/day
Bos taurus
  C50: 490 µM

## c1ccc2c(NCCCCCCCCCCNc3c4ccccc4nc4ccccc34)c3ccccc3nc2c1
P388
  ILS: 33%
[2]
  Rm: 0.65
Mus musculus [3]
  Activity: 2.5 mg/kg/day
Bos taurus
  C50: 0.09 µM

## CCOc1cc(NS(C)(=O)=O)ccc1Nc1c2ccccc2nc2ccccc12
Mus musculus [1]
  Activity: 60 mg/kg/day
L1210
  ILS: 71%
P388
  ILS: 218%
[2]
  Rm: 0.37
Mus musculus [3]
  Activity: 60 mg/kg/day
Bos taurus
  C50: 19 µM

## COc1cc(NS(C)(=O)=O)ccc1Nc1c2ccccc2nc2ccccc12 [AMSACRINE]
Mus musculus [1]
  Activity: 6.7 mg/kg/day
L1210
  ILS: 114%
Pseudoalteromonas
  Ratio: 0.082
[2]
  Rm: 0.18
Mus musculus [3]
  Activity: 6.7 mg/kg/day
Bos taurus
  C50: 10.8 µM

## COc1cc(NS(=O)(=O)CCCS(=O)(=O)Nc2ccc(Nc3c4ccccc4nc4ccccc34)c(OC)c2)ccc1Nc1c2ccccc2nc2ccccc12.CS(=O)(=O)O.O
Mus musculus [1]
  Activity: 50 mg/kg/day
[2]
  Rm: 0.22
Mus musculus [3]
  Activity: 50 mg/kg/day

## COc1cc(NS(=O)(=O)CCCCS(=O)(=O)Nc2ccc(Nc3ccnc4ccccc34)c(OC)c2)ccc1Nc1ccnc2ccccc12.Cl.O
Pseudoalteromonas
  Ratio: 0.15
P388
  ILS: >25%
[2]
  Rm: -0.28
[5]
  MTD at 120 h: 12 mg/kg/day
Bos taurus
  C50: 7.5 µM

## c1ccc(Nc2c3ccccc3nc3ccccc23)cc1
[4]
  MTD at 120 h: 105 mg/kg/day
L1210
  ILS: >25%
P388
  ILS: >25%
[2]
  Rm: 0.43
[5]
  MTD at 120 h: 105 mg/kg/day
Bos taurus
  C50: 13 µM

## Cl.O.O=S(=O)(CCCCCNc1c2ccccc2nc2ccccc12)Nc1ccc(Nc2c3ccccc3nc3ccccc23)cc1
Mus musculus [1]
  Activity: 250 mg/kg/day
L1210
  ILS: 35%
P388
  ILS: 63%
[2]
  Rm: -0.04
Mus musculus [3]
  Activity: 250 mg/kg/day
Bos taurus
  C50: 0.17 µM

## COc1cc(NS(=O)(=O)CCCCS(=O)(=O)Nc2ccc(Nc3c4ccccc4nc4ccccc34)c(OC)c2)ccc1Nc1c2ccccc2nc2ccccc12
Mus musculus [1]
  Activity: > 500 mg/kg/day
L1210
  ILS: 26%
Pseudoalteromonas
  Ratio: 0.041
P388
  ILS: 39%
[2]
  Rm: 0.27
Mus musculus [3]
  Activity: > 500 mg/kg/day
Bos taurus
  C50: 0.057 µM

## Br.O.O=S(=O)(CCCCCCNc1ccnc2ccccc12)Nc1ccc(Nc2c3ccccc3nc3ccccc23)cc1
[4]
  MTD at 120 h: 75 mg/kg/day
L1210
  ILS: >25%
P388
  ILS: >25%
[2]
  Rm: -0.09
[5]
  MTD at 120 h: 75 mg/kg/day
Bos taurus
  C50: 0.65 µM

## CS(=O)(=O)Nc1ccc(Nc2c3ccccc3nc3ccccc23)cc1
Mus musculus [1]
  Activity: 45 mg/kg/day
L1210
  ILS: 107%
P388
  ILS: 223%
[2]
  Rm: 0
Mus musculus [3]
  Activity: 45 mg/kg/day
Bos taurus
  C50: 5.9 µM

## Br.O=S(=O)(CCCNc1ccnc2ccccc12)Nc1ccc(Nc2c3ccccc3nc3ccccc23)cc1
P388
  ILS: >25%
[2]
  Rm: -0.45
[5]
  MTD at 120 h: 375 mg/kg/day
Bos taurus
  C50: 0.12 µM

## COc1cc(NS(=O)(=O)CCCCCS(=O)(=O)Nc2ccc(Nc3c4ccccc4nc4ccccc34)c(OC)c2)ccc1Nc1c2ccccc2nc2ccccc12.CS(=O)(=O)O.O
Mus musculus [1]
  Activity: 400 mg/kg/day
L1210
  ILS: 36%
P388
  ILS: 71%
[2]
  Rm: 0.35
Mus musculus [3]
  Activity: 400 mg/kg/day
Bos taurus
  C50: 0.14 µM

## Cl.O.O=S(=O)(CCCCNc1c2ccccc2nc2ccccc12)Nc1ccc(Nc2c3ccccc3nc3ccccc23)cc1
Pseudoalteromonas
  Ratio: 0.066
P388
  ILS: >25%
[2]
  Rm: -0.1
[5]
  MTD at 120 h: 37 mg/kg/day
Bos taurus
  C50: 0.09 µM

## c1ccc2c(NCCCCCCCNc3c4ccccc4nc4ccccc34)c3ccccc3nc2c1
P388
  ILS: 67%
[2]
  Rm: 0.27
Mus musculus [3]
  Activity: 5 mg/kg/day
Bos taurus
  C50: 0.1 µM

## c1ccc2c(NCCCCCNc3c4ccccc4nc4ccccc34)c3ccccc3nc2c1
P388
  ILS: 36%
[2]
  Rm: -0.06
Mus musculus [3]
  Activity: 7.5 mg/kg/day
Bos taurus
  C50: 0.21 µM

## Cl.O=S(=O)(CCCCS(=O)(=O)Nc1ccc(Nc2c3ccccc3nc3ccccc23)cc1)Nc1ccc(Nc2c3ccccc3nc3ccccc23)cc1
P388
  ILS: >25%
[2]
  Rm: -0.11
[5]
  MTD at 120 h: > 500 mg/kg/day
Bos taurus
  C50: 0.053 µM

## Cl.c1ccc(OCCCCCCCCNc2ccnc3ccccc23)c(Nc2c3ccccc3nc3ccccc23)c1
P388
  ILS: >25%
[2]
  Rm: 0.59
[5]
  MTD at 120 h: 31 mg/kg/day
Bos taurus
  C50: 0.6 µM

## c1ccc2c(NCCCCCCCCCCCCNc3c4ccccc4nc4ccccc34)c3ccccc3nc2c1
P388
  ILS: >25%
[2]
  Rm: 0.79
[5]
  MTD at 120 h: 5 mg/kg/day
Bos taurus
  C50: 0.11 µM

## Cl.O.c1ccc(OCCCCCCNc2ccnc3ccccc23)c(Nc2c3ccccc3nc3ccccc23)c1
P388
  ILS: >25%
[2]
  Rm: 0.42
[5]
  MTD at 120 h: 15 mg/kg/day
Bos taurus
  C50: 0.99 µM

## c1ccc2c(NCCCCCCNc3c4ccccc4nc4ccccc34)c3ccccc3nc2c1
P388
  ILS: 53%
[2]
  Rm: 0.13
Mus musculus [3]
  Activity: 2.5 mg/kg/day
Bos taurus
  C50: 0.15 µM

## CS(=O)(=O)Nc1ccc(Nc2c3ccccc3nc3ccccc23)c(OCCCCOc2cc(NS(C)(=O)=O)ccc2Nc2c3ccccc3nc3ccccc23)c1.Cl
P388
  ILS: >25%
[2]
  Rm: 0.01
[5]
  MTD at 120 h: > 500 mg/kg/day
Bos taurus
  C50: 0.22 µM

## c1ccc2c(NCCCCNc3c4ccccc4nc4ccccc34)c3ccccc3nc2c1
P388
  ILS: >25%
[2]
  Rm: -0.26
[5]
  MTD at 120 h: 10 mg/kg/day
Bos taurus
  C50: 0.3 µM

## c1ccc2c(NCCCCCCCCNc3c4ccccc4nc4ccccc34)c3ccccc3nc2c1
P388
  ILS: 55%
[2]
  Rm: 0.44
Mus musculus [3]
  Activity: 2.5 mg/kg/day
Bos taurus
  C50: 0.11 µM

## Cl.c1ccc(OCCCCCCOc2ccccc2Nc2c3ccccc3nc3ccccc23)c(Nc2c3ccccc3nc3ccccc23)c1
P388
  ILS: >25%
[2]
  Rm: 0.71
[5]
  MTD at 120 h: > 500 mg/kg/day
Bos taurus
  C50: 2.1 µM

## Br.O=S(=O)(CCCCNc1ccnc2ccccc12)Nc1ccc(Nc2c3ccccc3nc3ccccc23)cc1
Mus musculus [1]
  Activity: 75 mg/kg/day
L1210
  ILS: 29%
Pseudoalteromonas
  Ratio: 0.091
P388
  ILS: 76%
[2]
  Rm: -0.31
Mus musculus [3]
  Activity: 75 mg/kg/day
Bos taurus
  C50: 0.18 µM

## Cl.c1ccc(OCCCOc2ccccc2Nc2c3ccccc3nc3ccccc23)c(Nc2c3ccccc3nc3ccccc23)c1
Pseudoalteromonas
  Ratio: 0.072
P388
  ILS: >25%
[2]
  Rm: 0.28
[5]
  MTD at 120 h: 50 mg/kg/day
Bos taurus
  C50: 0.6 µM

## Cl.O.O=S(=O)(CCCCCS(=O)(=O)Nc1ccc(Nc2c3ccccc3nc3ccccc23)cc1)Nc1ccc(Nc2c3ccccc3nc3ccccc23)cc1
Mus musculus [1]
  Activity: 210 mg/kg/day
L1210
  ILS: 28%
P388
  ILS: 49%
[2]
  Rm: -0.02
Mus musculus [3]
  Activity: 210 mg/kg/day
Bos taurus
  C50: 0.07 µM

## COc1cc(NS(=O)(=O)CCCCCCS(=O)(=O)Nc2ccc(Nc3c4ccccc4nc4ccccc34)c(OC)c2)ccc1Nc1c2ccccc2nc2ccccc12.Cl.O
P388
  ILS: >25%
[2]
  Rm: 0.42
[5]
  MTD at 120 h: 270 mg/kg/day
Bos taurus
  C50: 0.15 µM

## c1ccc2c(NCCNc3c4ccccc4nc4ccccc34)c3ccccc3nc2c1
P388
  ILS: >25%
[2]
  Rm: -0.44
[5]
  MTD at 120 h: 5 mg/kg/day
Bos taurus
  C50: 0.7 µM
